Target: NMDA receptor (GRIN1/GRIN2A) (Homo sapiens, UniProt Q05586+Q12879)
Assay: NMDA potentiation, two electrode voltage clamp (TEVC) of Xenopus oocytes expressing NMDA receptor
Assay type: cell-based
Details: 10 μM compound, 3 μM Glutamate and Glycine
Method: NMDA potentiation was assessed using either whole cell patch clamp of mammalian cells which expressed NMDA receptors, or using two-electrode voltage clamp (TEVC) of Xenopus Laevis oocytes expressing NMDA receptors.
The Two Electrode Voltage Clamp (TEVC) technique was used to investigate the effects of compounds (10 μM) on the NMDA receptor (GRIN1/GRIN2A) expressed in Xenopus oocytes. Glutamate/Glycine peak and steady-state currents were recorded from oocytes that expressed the NMDA receptor and the modulatory effects of the test items on these currents were investigated.
Ovaries were harvested from Xenopus Laevis females that had been deeply anesthetized by cooling at 4° C. and immersion in Tricaine methanesulfonate (MS-222 at a concentration of 150 mg/L) in sodium bicarbonate (300 mg/L). Once anesthetized the animal was decapitated and pithed following the rules of animal rights from the Geneva canton. A small piece of ovary was isolated for immediate preparation while the remaining part was placed at 4° C. in a sterile Barth solution containing in mM NaCl 88, KCl 1, NaHCO3 2.4, HEPES 10, MgSO4·7H2O 0.82, Ca(NO3)2·4H2O 0.33, CaCl2·6H2O 0.41, at pH 7.4, and supplemented with 20 μg/ml of kanamycin, 100 unit/ml penicillin and 100 μg/ml streptomycin. All recordings were performed at 18° C. and cells were super-fused with medium containing in mM: NaCl 82.5, KCl 2.5, HEPES 5, CaCl2·2H2O, ·6H2O 1, pH 7.4.
Oocytes were injected with either cDNAs encoding for the human GRIN1 and GRIN2A subunits, using a proprietary automated injection device (Hogg et al., J. Neurosci. Methods, (2008) 169: 65-75) and receptor expression was assessed using electrophysiology at least two days later. The ratio of cDNA injection for GRIN1 and GRIN2A was 1:1. Electrophysiological recordings were made using an automated process equipped with standard TEVC and data were captured and analyzed using a proprietary data acquisition and analysis software running under Matlab (Mathworks Inc.). The membrane potential of the oocytes was maintained at −80 mV throughout the experiments. To explore the effects of proprietary compounds, currents were evoked by applying 3 μM Glutamate and […] Glycine for 10 s. Oocytes were then washed for 90 s before being exposed to the test article at a concentration of 10 μM for 120 s. Following this, 3 μM Glutamate and […] Glycine were immediately reapplied for 10 s. Potentiation of both the peak current and the steady state current was assessed. For statistical analysis values were computed either with Excel (Microsoft) or Matlab (Mathworks Inc.). To obtain mean measurements with standard deviations, all experiments were carried out using at least three cells.
Glutamate was prepared as a concentrated stock solution ([…]) in water and then diluted in the recording medium to obtain the desired test concentration. Glycine was prepared as a stock solution at 1 M in water. Compounds were prepared as stock solution ([…]) in DMSO and then diluted in the recording medium to obtain the desired test concentration.

NMDA receptor (GRIN1/GRIN2A), sequence (Q12879 23-1464, other chains not shown): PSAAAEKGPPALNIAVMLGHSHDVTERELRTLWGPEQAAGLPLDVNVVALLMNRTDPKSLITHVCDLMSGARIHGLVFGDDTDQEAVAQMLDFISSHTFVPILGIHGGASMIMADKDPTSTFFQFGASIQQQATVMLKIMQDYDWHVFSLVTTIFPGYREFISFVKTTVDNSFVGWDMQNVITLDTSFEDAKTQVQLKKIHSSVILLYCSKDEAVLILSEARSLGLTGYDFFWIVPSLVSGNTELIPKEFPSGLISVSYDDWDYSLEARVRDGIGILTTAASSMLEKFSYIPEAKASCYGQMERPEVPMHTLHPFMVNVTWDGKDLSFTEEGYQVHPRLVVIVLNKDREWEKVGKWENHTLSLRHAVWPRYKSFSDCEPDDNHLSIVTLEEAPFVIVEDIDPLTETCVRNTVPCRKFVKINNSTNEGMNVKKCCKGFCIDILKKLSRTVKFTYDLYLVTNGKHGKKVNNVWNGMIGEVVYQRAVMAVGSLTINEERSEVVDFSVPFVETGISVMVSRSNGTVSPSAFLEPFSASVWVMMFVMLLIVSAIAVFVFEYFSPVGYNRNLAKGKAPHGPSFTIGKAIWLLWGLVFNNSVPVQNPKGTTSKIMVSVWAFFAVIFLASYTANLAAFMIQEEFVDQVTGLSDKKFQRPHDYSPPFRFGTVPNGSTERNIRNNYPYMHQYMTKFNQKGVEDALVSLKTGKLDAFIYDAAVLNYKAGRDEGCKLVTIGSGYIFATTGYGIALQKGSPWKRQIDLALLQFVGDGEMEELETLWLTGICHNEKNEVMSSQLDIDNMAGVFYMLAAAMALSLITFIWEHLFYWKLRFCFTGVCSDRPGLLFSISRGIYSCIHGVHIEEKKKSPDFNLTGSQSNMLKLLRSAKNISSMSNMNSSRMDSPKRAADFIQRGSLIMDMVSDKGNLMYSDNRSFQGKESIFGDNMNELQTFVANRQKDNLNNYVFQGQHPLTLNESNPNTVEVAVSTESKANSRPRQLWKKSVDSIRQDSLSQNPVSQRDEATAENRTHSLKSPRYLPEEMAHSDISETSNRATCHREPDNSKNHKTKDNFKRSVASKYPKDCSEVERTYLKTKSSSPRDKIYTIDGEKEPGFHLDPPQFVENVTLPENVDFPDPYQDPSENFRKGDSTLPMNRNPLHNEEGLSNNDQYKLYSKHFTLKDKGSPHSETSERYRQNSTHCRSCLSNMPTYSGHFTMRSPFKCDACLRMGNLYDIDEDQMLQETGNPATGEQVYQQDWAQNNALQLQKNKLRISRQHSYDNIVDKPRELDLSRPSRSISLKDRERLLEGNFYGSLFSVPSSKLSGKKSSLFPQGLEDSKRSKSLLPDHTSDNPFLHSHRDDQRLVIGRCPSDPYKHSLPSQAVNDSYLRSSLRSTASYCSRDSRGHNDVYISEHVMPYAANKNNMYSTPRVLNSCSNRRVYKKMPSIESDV

C[C@H](CCC(C)(O)C1CC1)[C@H]1CC[C@H]2[C@@H]3CC[C@H]4C[C@@](C)(O)CC[C@]4(C)[C@H]3CC[C@]12C (stereo partly shown) [Compound 9-6]
activation at 10 µM: 50 to 100%

C[C@H](CC[C@@](C)(O)C1CC1)[C@H]1CC[C@H]2[C@@H]3CC[C@H]4C[C@@](C)(O)CC[C@]4(C)[C@H]3CC[C@]12C [Compound 9-7]
activation at 10 µM: 10 to 50%

C[C@H](CC[C@](C)(O)C1CC1)[C@H]1CC[C@H]2[C@@H]3CC[C@H]4C[C@@](C)(O)CC[C@]4(C)[C@H]3CC[C@]12C [Compound 9-8]
activation at 10 µM: 10 to 50%

C#CC(C)(O)CC[C@@H](C)[C@H]1CC[C@H]2[C@@H]3CC=C4C[C@@](C)(O)CC[C@]4(C)[C@H]3CC[C@]12C (stereo partly shown) [Compound 10-2]
activation at 10 µM: 50 to 100%

C#C[C@](C)(O)CC[C@@H](C)[C@H]1CC[C@H]2[C@@H]3CC=C4C[C@@](C)(O)CC[C@]4(C)[C@H]3CC[C@]12C [Compound 10-3]
activation at 10 µM: 10 to 50%

C#C[C@@](C)(O)CC[C@@H](C)[C@H]1CC[C@H]2[C@@H]3CC=C4C[C@@](C)(O)CC[C@]4(C)[C@H]3CC[C@]12C [Compound 10-4]
activation at 10 µM: 10 to 50%

C#CC(C)(O)CC[C@@H](C)[C@H]1CC[C@H]2[C@@H]3CC[C@H]4C[C@@](C)(O)CC[C@]4(C)[C@H]3CC[C@]12C (stereo partly shown) [Compound 10-6]
activation at 10 µM: 50 to 100%

C=CC(C)(O)CC[C@@H](C)[C@H]1CC[C@H]2[C@@H]3CC[C@H]4C[C@@](C)(O)CC[C@]4(C)[C@H]3CC[C@]12C (stereo partly shown) [Compound 10-7]
activation at 10 µM: 50 to 100%

C#C[C@](C)(O)CC[C@@H](C)[C@H]1CC[C@H]2[C@@H]3CC[C@H]4C[C@@](C)(O)CC[C@]4(C)[C@H]3CC[C@]12C [Compound 10-8]
activation at 10 µM: 50 to 100%

C#C[C@@](C)(O)CC[C@@H](C)[C@H]1CC[C@H]2[C@@H]3CC[C@H]4C[C@@](C)(O)CC[C@]4(C)[C@H]3CC[C@]12C [Compound 10-9]
activation at 10 µM: 10 to 50%

C=C[C@](C)(O)CC[C@@H](C)[C@H]1CC[C@H]2[C@@H]3CC[C@H]4C[C@@](C)(O)CC[C@]4(C)[C@H]3CC[C@]12C [Compound 10-10]
activation at 10 µM: 10 to 50%

C=C[C@@](C)(O)CC[C@@H](C)[C@H]1CC[C@H]2[C@@H]3CC[C@H]4C[C@@](C)(O)CC[C@]4(C)[C@H]3CC[C@]12C [Compound 10-11]
activation at 10 µM: 10 to 50%

C=C[C@](C)(O)CC[C@@H](C)[C@H]1CC[C@H]2[C@@H]3CC=C4C[C@@](C)(O)CC[C@]4(C)[C@H]3CC[C@]12C [Compound 10-12A]
activation at 10 µM: 10 to 50%

C=C[C@@](C)(O)CC[C@@H](C)[C@H]1CC[C@H]2[C@@H]3CC=C4C[C@@](C)(O)CC[C@]4(C)[C@H]3CC[C@]12C [Compound 10-12B]
activation at 10 µM: 10 to 50%

C=CC(C)(O)CC[C@@H](C)[C@H]1CC[C@H]2[C@@H]3CC=C4C[C@@](C)(O)CC[C@]4(C)[C@H]3CC[C@]12C (stereo partly shown) [Compound 10-12]
activation at 10 µM: 10 to 50%

C[C@H](CCC(C)(O)CCO)[C@H]1CC[C@H]2[C@@H]3CC=C4C[C@@](C)(O)CC[C@]4(C)[C@H]3CC[C@]12C (stereo partly shown) [Compound 10-13]
activation at 10 µM: 50 to 100%

COCCC(C)(O)CC[C@@H](C)[C@H]1CC[C@H]2[C@@H]3CC=C4C[C@@](C)(O)CC[C@]4(C)[C@H]3CC[C@]12C (stereo partly shown) [Compound 10-14]
activation at 10 µM: 50 to 100%

C[C@H](CC[C@@](C)(O)CCO)[C@H]1CC[C@H]2[C@@H]3CC[C@H]4C[C@@](C)(O)CC[C@]4(C)[C@H]3CC[C@]12C [Compound 10-16]
activation at 10 µM: 10 to 50%

COCC[C@](C)(O)CC[C@@H](C)[C@H]1CC[C@H]2[C@@H]3CC[C@H]4C[C@@](C)(O)CC[C@]4(C)[C@H]3CC[C@]12C [Compound 10-17]
activation at 10 µM: > 100%

C[C@H](CC[C@](C)(O)CCO)[C@H]1CC[C@H]2[C@@H]3CC[C@H]4C[C@@](C)(O)CC[C@]4(C)[C@H]3CC[C@]12C [Compound 10-18]
activation at 10 µM: 50 to 100%

COCC[C@@](C)(O)CC[C@@H](C)[C@H]1CC[C@H]2[C@@H]3CC[C@H]4C[C@@](C)(O)CC[C@]4(C)[C@H]3CC[C@]12C [Compound 10-19]
activation at 10 µM: 10 to 50%

C[C@H](CC[C@@](C)(O)CCO)[C@H]1CC[C@H]2[C@@H]3CC=C4C[C@@](C)(O)CC[C@]4(C)[C@H]3CC[C@]12C [Compound 10-20]
activation at 10 µM: 10 to 50%

C[C@H](CC[C@](C)(O)CCO)[C@H]1CC[C@H]2[C@@H]3CC=C4C[C@@](C)(O)CC[C@]4(C)[C@H]3CC[C@]12C [Compound 10-21]
activation at 10 µM: 10 to 50%

COCC[C@](C)(O)CC[C@@H](C)[C@H]1CC[C@H]2[C@@H]3CC=C4C[C@@](C)(O)CC[C@]4(C)[C@H]3CC[C@]12C [Compound 10-22]
activation at 10 µM: 50 to 100%

COCC[C@@](C)(O)CC[C@@H](C)[C@H]1CC[C@H]2[C@@H]3CC=C4C[C@@](C)(O)CC[C@]4(C)[C@H]3CC[C@]12C [Compound 10-23]
activation at 10 µM: 10 to 50%

C[C@H](CC(F)(F)[C@H](C)O)[C@H]1CC[C@H]2[C@@H]3CC=C4C[C@@](C)(O)CC[C@]4(C)[C@H]3CC[C@]12C [Compound 11-15]
activation at 10 µM: 10 to 50%

C[C@H](CC(F)(F)[C@@H](C)O)[C@H]1CC[C@H]2[C@@H]3CC=C4C[C@@](C)(O)CC[C@]4(C)[C@H]3CC[C@]12C [Compound 11-16]
activation at 10 µM: 10 to 50%

C[C@H](CC(F)(F)C(C)(C)O)[C@H]1CC[C@H]2[C@@H]3CC=C4C[C@@](C)(O)CC[C@]4(C)[C@H]3CC[C@]12C [Compound 11-19]
activation at 10 µM: 10 to 50%
